# Measured values taken from patent publication US20240132431A1, “METHOD FOR ALKYLATING ACIDIC FUNCTIONAL GROUP” (Chugai Seiyaku Kabushiki Kaisha, priority 2021, published 2024).
# Biological target: T1, Bcl-2 protein (Recombinant Human Bcl-2 Protein) (Homo sapiens, UniProt P10415)
# T1 construct: purchased Novus NBP2-34889
# Assay: Binding evaluation of mixture library compounds to Bcl-2 using AS-MS (affinity selection mass spectrometry)
# Conditions: for ASMS ratio (%) n = 1: replicate n = 1; for ASMS ratio (%) n = 1 / ASMS ratio (%) n = 2: ASMS Ratio(%)=(A−C)/B×100; for ASMS ratio (%) n = 2: replicate n = 2
# Protocol: For one well of MICROPLATE, 96-well, PP, V-BOTTOM (Greiner bio-one, 651201), DMSO solutions of 12 mixtures (prepared to approximately 0.58 mM based on calculations from the average molecular weight of each mixture), in each of which 100 compounds are mixed, were each dispensed, and dispensed into a total of 12 wells, where the 12 mixtures are mixAI-B4J-01, mixAI-B1M-01, mixAI-B1K-01, mixAI-B10-01, mixAI-B1A-01, mixAI-B3A-01, mixAI-B21-01, mixAI-B2L-01, mixAI-B2N-01, mixAI-B2A-01, mixAI-B2Q-01, and mixAI-B2R-01 listed in [Table AI-03-B4J-01], [Table AI-03-B1M-01], [Table AI-03-B1K-01], [Table AI-03-B10-01], [Table AI-03-B1A-01], [Table AI-03-B3A-01], [Table AI-03-B2I-01], [Table AI-03-B2L-01], [Table AI-03-B2N-01], [Table AI-03-B2A-01], [Table AI-03-B2Q-01], and [AI-03-B2R-01] shown in Example 6. Using the LABCYTE ECHO® 555 Acoustic Dispensing System (BECKMAN COULTER), 70 nL was collected from each of the 12 wells into one arbitrary well to prepare a sample solution with 1200 compounds in the mixed state (the presence of 1152 compounds had already been identified when prepared in Example 6-5-3). (In the present specification, the mixture collected in this one well is referred to as one library.) Furthermore, a Bcl-2 protein (Novus, NBP2-34889, Recombinant Human Bcl-2 Protein, Lot E60145051) (19.2 μL) that had been prepared in advance to be 20.9 μM using a Tris-HCl buffer (25 mM Tris-HCl pH 7.4, 150 mM NaCl, 0.025% Tween-20, 1 mM DTT) was added to the well in which 1200 compounds (the presence of 1152 compounds had already been identified when prepared in Example 6-5-3) were dispensed (final compound concentration […], final Bcl-2 concentration 20 μM), and the mixture was incubated in the dark at 23° C. for 1 hour. Next, using the 96-well MacroSpin column, P-2 Material (Harvard, 74-5655) that had been swollen, conditioning of the 96-well MacroSpin column was performed three times by centrifugation with 200 μL of an assay buffer (25 mM Tris-HCl pH 7.4, 150 mM NaCl, 0.025% Tween-20, 1 mM DTT), 2000 XG, 4° C., 2 min. Subsequently, 20 μL of the sample after incubation was added to the 96-well MacroSpin column, P-2 Material, that had been conditioned, and SEC treatment was performed by centrifugation at 2000×G for 2 minutes. To the liquid passed from the SEC, 32 μL of a 1:1 mixed solution of acetonitrile and methanol (LC/MS grade, Fujifilm Wako Pure Chemical Corporation) was added, the mixture was centrifuged at 1800×G, 4° C., 5 min, and the supernatant was used as analysis sample ASMS (A), while a sample that had been prepared by the same operations at 1200 compounds/well and to which only the Tris-HCl buffer had been added without the Bcl-2 protein was incubated under the same conditions, no 96-well MacroSpin column treatment was performed, the same organic solvent was added, and the supernatant solution obtained by centrifugation was used as STD (B). Next, a sample that had been prepared by the same operations at 1200 compounds/well and to which only the Tris-HCl buffer had been added without the Bcl-2 protein was incubated under the same conditions, the same 96-well MacroSpin column treatment was performed, the same organic solvent was added, and the supernatant solution obtained by centrifugation was used as BK (C), and measured by reversed phase LC/MS.
# Then, analysis of the 1200 compounds was carried out for samples A, B, and C with TraceFinder 5.1 (Thermo Fisher Scientific) and CHANCE Software (in-house), and the ASMS Ratio (%) was calculated according to the following calculation formula.
# Calculation formula: ASMS Ratio(%)=(A−C)/B×100
# [1] = AS-MS on the mixture of 1200 library compounds
# [2] = AS-MS, mixture of 1200 compounds, Bcl-2
# T1 sequence (P10415 whole entry): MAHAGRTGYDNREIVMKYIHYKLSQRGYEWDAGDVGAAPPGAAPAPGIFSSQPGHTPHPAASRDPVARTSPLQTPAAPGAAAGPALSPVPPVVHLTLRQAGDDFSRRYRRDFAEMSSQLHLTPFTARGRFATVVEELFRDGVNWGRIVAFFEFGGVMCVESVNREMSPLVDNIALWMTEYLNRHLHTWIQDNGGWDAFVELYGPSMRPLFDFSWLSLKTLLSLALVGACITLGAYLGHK
compound,measurement,setting,value
"CCOc1cccc(-c2cc(OC)c(CN3CCN(c4ccc(C(=O)NS(=O)(=O)c5ccc(NCCSc6ccccc6)c(C(F)(F)F)c5)cc4)CC3)c(OC)c2)c1 [B2R059-01, 4-[4-[[4-(3-Ethoxyphenyl)-2,6-dimethoxyphenyl]methyl]piperazin-1-yl]-N-[4-(2-phenylsulfanylethylamino)-3-(trifluoromethyl)phenyl]sulfonylbenzamide]",ASMS ratio (%),n = 1,0.0%
same,ASMS ratio (%),n = 2,0.0%
"CCOc1cccc(-c2ccccc2CCC(=O)N2CCN(c3ccc(C(=O)NS(=O)(=O)c4ccc(NCCSc5ccccc5)c([N+](=O)[O-])c4)cc3)CC2)c1 [B2Q033-01, 4-[4-[3-[2-(3-Ethoxyphenyl)phenyl]propanoyl]piperazin-1-yl]-N-[3-nitro-4-(2-phenylsulfanylethylamino)phenyl]sulfonylbenzamide]",ASMS ratio (%) n = 1,"AS-MS, mixture library, Bcl-2",4.2%
same,ASMS ratio (%) n = 2,"AS-MS, mixture library, Bcl-2",−2.3%
"CCOc1cncc(-c2ccc(C(=O)N3CCN(c4ccc(C(=O)Nc5ccc(OC)cc5)cc4)CC3)cc2F)c1 [B1O028-01, 4-[4-[4-(5-Ethoxypyridin-3-yl)-3-fluorobenzoyl]piperazin-1-yl]-N-(4-methoxyphenyl)benzamide]",ASMS ratio (%) n = 1,[1],4.9%
same,ASMS ratio (%) n = 2,[1],0.4%
4-[4-[[4-(3-Ethoxyphenyl)-2-methoxyphenyl]methyl]piperazin-1-yl]-N-propylbenzamide [B1M093-01],ASMS ratio (%) n = 1,[1],0.0%
same,ASMS ratio (%) n = 2,[1],0.0%
CCOc1cncc(-c2ccc(CN3CCN(c4ccc(C(=O)NS(=O)(=O)c5ccc(NCCSc6ccccc6)c(C(F)(F)F)c5)cc4)CC3)cc2C)c1 [B2R048-01],ASMS ratio (%),n = 1,9.2%
same,ASMS ratio (%),n = 2,7.5%
"CCOc1cncc(-c2ccc(C(=O)N3CCN(c4ccc(C(=O)NCC(F)(F)F)nn4)CC3)c3ccccc23)c1 [B1K014-01, 6-[4-[4-(5-Ethoxypyridin-3-yl)naphthalene-1-carbonyl]piperazin-1-yl]-N-(2,2,2-trifluoroethyl)pyridazine-3-carboxamide]",ASMS ratio (%) n = 1,[2],−0.3%
same,ASMS ratio (%) n = 2,[2],0.0%
"CCOc1cccc(-c2cc(C(=O)N3CCN(c4ccc(C(=O)NS(=O)(=O)CC56CC7CC(CC(C7)C5)C6)cc4)CC3)cc(C(F)(F)F)c2)c1 [B2A039-01, N-(1-Adamantylmethylsulfonyl)-4-[4-[3-(3-ethoxyphenyl)-5-(trifluoromethyl)benzoyl]piperazin-1-yl]benzamide]",ASMS ratio (%) n = 1,"AS-MS, mixture library, Bcl-2",7.4%
same,ASMS ratio (%) n = 2,"AS-MS, mixture library, Bcl-2",−10.4%
"CCOc1cccc(C#Cc2ccccc2C(=O)N2CCN(c3ccc(C(=O)N(CC)CC)nn3)CC2)c1 [B4J007-01, 6-[4-[2-[2-(3-Ethoxyphenyl)ethynyl]benzoyl]piperazin-1-yl]-N,N-diethylpyridazine-3-carboxamide]",ASMS ratio (%) n = 1,[1],−1.0%
same,ASMS ratio (%) n = 2,[1],1.5%
"CCOc1cccc(-c2cnn(-c3cc(C(=O)N4CCN(c5ccc(C(=O)N(CC)CC)cc5)CC4)cc(C(F)(F)F)c3)c2)c1 [B4J043-01, 4-[4-[3-[4-(3-Ethoxyphenyl)pyrazol-1-yl]-5-(trifluoromethyl)benzoyl]piperazin-1-yl]-N,N-diethylbenzamide]",ASMS ratio (%) n = 1,[1],3.8%
same,ASMS ratio (%) n = 2,[1],3.2%
"CCOc1cncc(-c2csc(C(=O)N3CCN(c4ccc(C(=O)NCC(F)(F)F)cc4)CC3)c2)c1 [B1K024-01, 4-[4-[4-(5-Ethoxypyridin-3-yl)thiophene-2-carbonyl]piperazin-1-yl]-N-(2,2,2-trifluoroethyl)benzamide]",ASMS ratio (%) n = 1,[2],0.0%
same,ASMS ratio (%) n = 2,[2],0.0%
"CCOc1cccc(-c2ccc(CN3CCN(c4ccc(C(=O)N(C)CC56CC7CC(CC(C7)C5)C6)cc4)CC3)cc2C)c1 [B3A047-01, N-(1-Adamantylmethyl)-4-[4-[[4-(3-ethoxyphenyl)-3-methylphenyl]methyl]piperazin-1-yl]-N-methylbenzamide]",ASMS ratio (%) n = 1,[1],1.8%
same,ASMS ratio (%) n = 2,[1],−5.9%
"CCOc1cncc(-c2ccccc2CN2CCN(c3ccc(C(=O)NCC(F)(F)F)cc3)CC2)c1 [B1K046-01, 4-[4-[[2-(5-Ethoxypyridin-3-yl)phenyl]methyl]piperazin-1-yl]-N-(2,2,2-trifluoroethyl)benzamide]",ASMS ratio (%) n = 1,[2],−0.1%
same,ASMS ratio (%) n = 2,[2],0.5%
"CCOc1cccc(-c2ccc(C(=O)N3CCN(c4ccc(C(=O)NCC56CC7CC(CC(C7)C5)C6)cc4)CC3)cc2C)c1 [B1A025-01, N-(1-Adamantylmethyl)-4-[4-[4-(3-ethoxyphenyl)-3-methylbenzoyl]piperazin-1-yl]benzamide]",ASMS ratio (%) n = 1,[2],7.4%
same,ASMS ratio (%) n = 2,[2],−16.1%
4-[4-[4-(5-Ethoxypyridin-3-yl)-3-fluorobenzoyl]piperazin-1-yl]-N-propylbenzamide [B1M091-01],ASMS ratio (%) n = 1,[1],0.0%
same,ASMS ratio (%) n = 2,[1],0.0%
"CCOc1cncc(-c2cc(CN3CCN(c4ccc(C(=O)N(CC)CC)cc4)CC3)cc(OC(C)C)c2)c1 [B4J058-01, 4-[4-[[3-(5-Ethoxypyridin-3-yl)-5-propan-2-yloxyphenyl]methyl]piperazin-1-yl]-N,N-diethylbenzamide]",ASMS ratio (%) n = 1,[1],2.2%
same,ASMS ratio (%) n = 2,[1],0.5%
"CCOc1cccc(-c2ccc(CN3CCN(c4ccc(C(=O)N(CC)CC)cc4)CC3)cc2C)c1 [B4J047-01, 4-[4-[[4-(3-Ethoxyphenyl)-3-methylphenyl]methyl]piperazin-1-yl]-N,N-diethylbenzamide]",ASMS ratio (%) n = 1,[1],−6.6%
same,ASMS ratio (%) n = 2,[1],0.0%
"CCOc1cncc(C#Cc2cncc(C(=O)N3CCN(c4ccc(C(=O)Nc5ccc(OC)cc5)nn4)CC3)c2)c1 [B1O010-01, 6-[4-[5-[2-(5-Ethoxypyridin-3-yl)ethynyl]pyridine-3-carbonyl]piperazin-1-yl]-N-(4-methoxyphenyl)pyridazine-3-carboxamide]",ASMS ratio (%) n = 1,[1],0.0%
same,ASMS ratio (%) n = 2,[1],0.0%
"CCOc1cncc(-c2ccccc2CCC(=O)N2CCN(c3ccc(C(=O)NS(=O)(=O)C(C)(C)C)nn3)CC2)c1 [B2L012-01, N-tert-Butylsulfonyl-6-[4-[3-[2-(5-ethoxypyridin-3-yl)phenyl]propanoyl]piperazin-1-yl]pyridazine-3-carboxamide]",ASMS ratio (%),n = 1,4.3%
same,ASMS ratio (%),n = 2,7.3%
CCOc1cccc(C#Cc2ccccc2CN2CCN(c3ccc(C(=O)NS(C)(=O)=O)cc3)CC2)c1 [B2I069-01],ASMS ratio (%),n = 1,0.0%
same,ASMS ratio (%),n = 2,−2.2%
